The source of these data is patent publication US10047104B2, “Bicyclic heterocyclyl derivatives as IRAK4 inhibitors” (Aurigene Discovery Technologies Limited, priority 2014, dated 2018).

pIC50: −log10 of the molar value. Where a name gives a salt, the structure may show the parent alone.

The target of the test is T1, recombinant IRAK-4 kinase (Homo sapiens, UniProt Q9NWZ3).
T1 construct: purchased Millipore, USA
T1 sequence (Q9NWZ3 1-460): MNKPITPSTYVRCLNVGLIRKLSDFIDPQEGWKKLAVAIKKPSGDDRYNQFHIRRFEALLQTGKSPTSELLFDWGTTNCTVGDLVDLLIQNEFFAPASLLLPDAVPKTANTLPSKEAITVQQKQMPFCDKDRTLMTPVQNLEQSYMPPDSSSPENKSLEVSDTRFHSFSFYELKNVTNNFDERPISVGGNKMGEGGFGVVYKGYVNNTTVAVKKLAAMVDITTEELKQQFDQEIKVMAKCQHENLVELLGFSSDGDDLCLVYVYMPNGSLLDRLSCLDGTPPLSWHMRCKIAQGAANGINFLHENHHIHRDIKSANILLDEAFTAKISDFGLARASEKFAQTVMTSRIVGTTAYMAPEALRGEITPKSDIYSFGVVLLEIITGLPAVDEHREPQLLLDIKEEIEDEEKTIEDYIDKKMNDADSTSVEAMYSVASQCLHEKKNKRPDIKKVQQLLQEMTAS
Nature of the test: IRAK-4 Biochemical Assay (TR-FRET). To be noted: 5 ng IRAK-4 kinase, 100 nM Biotin Histone H3, 20 μM ATP, 30 minutes pre-incubation, read-out: IC50 values for IRAK4 activity. How it is done: Compounds were tested for their potential to inhibit IRAK-4 enzyme in a TR-FRET assay using recombinant IRAK-4 kinase from Millipore, USA. The assay buffer was 50 mM Tris-HCl pH 7.5, 20 mM MgCl2, 1 mM EGTA, 2 mM DTT, 3 mM MnCl2 and 0.01% Tween20. 5 ng of IRAK-4 kinase was used for the assay. After pre-incubation of enzyme with test compound for 30 minutes at room temperature, a substrate mix containing 100 nM Biotin Histone H3 (Millipore, USA) and 20 μM ATP (Sigma, USA) was added and the reaction was incubated for 30 minutes. Post incubation, the reaction was stopped by the addition of stop mix containing 40 mM EDTA, 1 nM of Europium-Anti-Phospho-Histone H3 (Ser10) antibody (Perkin Elmer, USA) and 20 nM Sure Light Allophycocyanin-Streptavidin (Perkin Elmer, USA).
Consider `Cc1cc(-c2nc(C(=O)Nc3cc4oc(N5CCCCC5)nc4nc3N3CCCCC3)co2)ccn1` [Example 5, N-(2,5-di(piperidin-1-yl)oxazolo[4,5-b]pyridin-6-yl)-2-(2-methylpyridin-4-yl)oxazole-4-carboxamide], for which the pIC50 was > 7.30.
Regarding `Cc1cc(-c2nc(C(=O)Nc3cc4sc(N5CCCCC5)nc4nc3N3CCCC3)co2)ccn1` [Example 88, 2-(2-methylpyridin-4-yl)-N-(2-(piperidin-1-yl)-5-(pyrrolidin-1-yl)thiazolo[4,5-b]pyridin-6-yl)oxazole-4-carboxamide], the pIC50 was > 7.30.
`Cc1cc(-c2nc(C(=O)Nc3cc4sc(N5CCOCC5)nc4nc3N3C4CCC3CC(O)C4)co2)ccn1` (stereo not shown) [Example 123, N-(5-(3-hydroxy-8-azabicyclo[3.2.1]octan-8-yl)-2-morpholinothiazolo[4,5-b]pyridin-6-yl)-2-(2-methylpyridin-4-yl)oxazole-4-carboxamide]: the pIC50 is > 7.30.
With `Cc1cc(-c2ccc(C(=O)Nc3cc4oc(N5CCOCC5)nc4nc3N3CC[C@H](O)C3)o2)ccn1` [Example 107, (S)—N-(5-(3-hydroxypyrrolidin-1-yl)-2-morpholinooxazolo[4,5-b]pyridin-6-yl)-5-(2-methylpyridin-4-yl)furan-2-carboxamide], the pIC50 is < 7.00.
For `O=C(Nc1cc2oc(N3CCCCC3)nc2nc1N1CCCCC1)c1coc(-c2ccc(O)nc2)n1` [Example 30, N-(2,5-di(piperidin-1-yl)oxazolo[4,5-b]pyridin-6-yl)-2-(6-hydroxypyridin-3-yl)oxazole-4-carboxamide] the value was < 7.00; for `Nc1cc(-c2nc(C(=O)Nc3cc4sc(N5CCOCC5)nc4nc3N3CCCC(O)C3)co2)ccn1` (stereo not shown) [Example 128, 2-(2-aminopyridin-4-yl)-N-(5-(3-hydroxypiperidin-1-yl)-2-morpholinothiazolo[4,5-b]pyridin-6-yl)oxazole-4-carboxamide hydrochloride], > 7.30.
Under `Cc1cc(-c2nc(C(=O)Nc3cc4oc(N5CCOCC5)nc4nc3N3CCOCC3)co2)ccn1` [Example 24, N-(2,5-dimorpholinooxazolo[4,5-b]pyridin-6-yl)-2-(2-methylpyridin-4-yl)oxazole-4-carboxamide] stands > 7.30.
As for `N[C@H]1CCN(c2nc(C(=O)Nc3cc4oc(N5CCOCC5)nc4nc3N3CCCCC3)co2)C1` [Example 42, (S)-2-(3-aminopyrrolidin-1-yl)-N-(2-morpholino-5-(piperidin-1-yl)oxazolo[4,5-b]pyridin-6-yl)oxazole-4-carboxamide], the pIC50 was 7.00 to 7.30.
With `Cc1ncccc1-c1nc(C(=O)Nc2cc3oc(N4CCOCC4)nc3nc2N2CCCCC2)co1` [Example 32, 2-(2-methylpyridin-3-yl)-N-(2-morpholino-5-(piperidin-1-yl)oxazolo[4,5-b]pyridin-6-yl)oxazole-4-carboxamide], the pIC50 was > 7.30.
`Cn1cc(-c2cccc(C(=O)Nc3cc4sc(N5CCCCC5)nc4nc3N3CCCCC3)n2)cn1` [Example 50, N-(2,5-di(piperidin-1-yl)thiazolo[4,5-b]pyridin-6-yl)-6-(1-methyl-1H-pyrazol-4-yl)picolinamide hydrochloride]: the pIC50 was > 7.30.
On to `Cc1ccc(-c2nc(C(=O)Nc3cc4oc(N5CCCCC5)nc4nc3N3CCCCC3)co2)cn1` [Example 37, N-(2,5-di(piperidin-1-yl)oxazolo[4,5-b]pyridin-6-yl)-2-(6-methylpyridin-3-yl)oxazole-4-carboxamide], for which the pIC50 was > 7.30.
For the molecule `COc1ccc(-c2nc(C(=O)Nc3cc4sc(N5CCOCC5)nc4nc3N3CC[C@@H](O)C3)co2)cn1` [Example 78, (R)—N-(5-(3-hydroxypyrrolidin-1-yl)-2-morpholinothiazolo[4,5-b]pyridin-6-yl)-2-(6-methoxypyridin-3-yl)oxazole-4-carboxamide], the pIC50 is > 7.30.
With `Cc1cc(-c2nc(C(=O)Nc3cc4sc(N5CCOCC5)nc4nc3N3CC(O)C3)co2)ccn1` [Example 80, N-(5-(3-hydroxyazetidin-1-yl)-2-morpholinothiazolo[4,5-b]pyridin-6-yl)-2-(2-methylpyridin-4-yl)oxazole-4-carboxamide], the pIC50 is > 7.30.
For `O=C(Nc1cc2sc(N3CCOCC3)nc2nc1N1CCCCC1)c1coc(-c2cccnc2O)n1` [Example 55, 2-(2-hydroxypyridin-3-yl)-N-(2-morpholino-5-(piperidin-1-yl)thiazolo[4,5-b]pyridin-6-yl)oxazole-4-carboxamide] the value was > 7.30; for `C[C@H](O)Cn1cc(-c2cccc(C(=O)Nc3cc4sc(N5CCOCC5)nc4nc3N3CCCCC3)n2)cn1` [Example 96, (S)-6-(1-(2-hydroxypropyl)-1H-pyrazol-4-yl)-N-(2-morpholino-5-(piperidin-1-yl)thiazolo[4,5-b]pyridin-6-yl)picolinamide], > 7.30; for `Cc1cc(-c2ccc(C(=O)Nc3cc4sc(N5CCOCC5)nc4nc3N3CC[C@H](O)C3)s2)ccn1` [Example 81, (S)—N-(5-(3-hydroxypyrrolidin-1-yl)-2-morpholinothiazolo[4,5-b]pyridin-6-yl)-5-(2-methylpyridin-4-yl)thiophene-2-carboxamide], < 7.00.
On to `O=C(Nc1cc2sc(N3CCOCC3)nc2nc1N1CCCCC1)c1cccc(-c2cn[nH]c2)n1` [Example 21, N-(2-morpholino-5-(piperidin-1-yl)thiazolo[4,5-b]pyridin-6-yl)-6-(1H-pyrazol-4-yl)picolinamide], for which the pIC50 was > 7.30.
For `C[C@H](O)Cn1cc(-c2cccc(C(=O)Nc3cc4sc(N5CCOCC5)nc4nc3C3CC3)n2)cn1` [Example 74, (S)—N-(5-cyclopropyl-2-morpholinothiazolo[4,5-b]pyridin-6-yl)-6-(1-(2-hydroxypropyl)-1H-pyrazol-4-yl)picolinamide] the value was > 7.30.
For `Cc1cc(-c2nc(C(=O)Nc3cc4sc(N5CCCC(O)C5)nc4nc3N3CCC(O)CC3)co2)ccn1` (stereo not shown) [Example 126, N-(2-(3-hydroxypiperidin-1-yl)-5-(4-hydroxypiperidin-1-yl)thiazolo[4,5-b]pyridin-6-yl)-2-(2-methylpyridin-4-yl)oxazole-4-carboxamide], the pIC50 is > 7.30.
With `Cc1cc(-c2nc(C(=O)Nc3cc4sc(N5CCOCC5)nc4nc3N3CCC3)co2)ccn1` [Example 93, N-(5-(azetidin-1-yl)-2-morpholinothiazolo[4,5-b]pyridin-6-yl)-2-(2-methylpyridin-4-yl)oxazole-4-carboxamide], the pIC50 is > 7.30.
On to `C[C@H](O)Cn1cc(-c2nc(C(=O)Nc3cc4sc(N5CCOCC5)nc4nc3C3CC3)co2)cn1` [Example 75, (S)—N-(5-cyclopropyl-2-morpholinothiazolo[4,5-b]pyridin-6-yl)-2-(1-(2-hydroxypropyl)-1H-pyrazol-4-yl)oxazole-4-carboxamide], for which the negative logarithm of the IC50 (pIC50) is > 7.30.
For the molecule `Cc1cc(-c2nc(C(=O)Nc3cc4sc(N5CCOCC5)nc4nc3N3CCC[C@H](O)C3)co2)ccn1` [Example 83, (S)—N-(5-(3-hydroxypiperidin-1-yl)-2-morpholinothiazolo[4,5-b]pyridin-6-yl)-2-(2-methylpyridin-4-yl)oxazole-4-carboxamide], the pIC50 is > 7.30.
Take `Cc1ncccc1-c1nc(C(=O)Nc2cc3sc(N4CCOCC4)nc3nc2N2CCCCC2)co1` [Example 54, 2-(2-methylpyridin-3-yl)-N-(2-morpholino-5-(piperidin-1-yl)thiazolo[4,5-b]pyridin-6-yl)oxazole-4-carboxamide]: the pIC50 was > 7.30.
Consider `Cc1cc(-c2nc(C(=O)Nc3cc4sc(N5CCCC(O)C5)nc4nc3N3CCC(N)CC3)co2)ccn1` (stereo not shown) [Example 134, N-(5-(4-aminopiperidin-1-yl)-2-(3-hydroxypiperidin-1-yl)thiazolo[4,5-b]pyridin-6-yl)-2-(2-methylpyridin-4-yl)oxazole-4-carboxamide hydrochloride], for which the pIC50 is > 7.30.
Regarding `O=C(Nc1cc2oc(N3CCCCC3)nc2nc1N1CCCCC1)c1coc(-c2ccnc(Cl)c2)n1` [Example 10, 2-(2-chloropyridin-4-yl)-N-(2,5-di(piperidin-1-yl)oxazolo[4,5-b]pyridin-6-yl)oxazole-4-carboxamide], the pIC50 is > 7.30.
In the case of `O=C(Nc1cc2sc(N3CCOCC3)nc2nc1C1CC1)c1cccc(N2CC[C@H](O)C2)n1` [Example 72, (S)—N-(5-cyclopropyl-2-morpholinothiazolo[4,5-b]pyridin-6-yl)-6-(3-hydroxypyrrolidin-1-yl)picolinamide], the pIC50 was > 7.30.
Consider `Nc1ccc(-c2cccc(C(=O)Nc3ccc4nc(N5CCOCC5)sc4n3)n2)cn1` [Example 14, 6′-amino-N-(2-morpholinothiazolo[5,4-b]pyridin-5-yl)-[2,3′-bipyridine]-6-carboxamide], for which the negative-log IC50 (pIC50) is > 7.30.
For `Nc1ccc(-c2cccc(C(=O)Nc3cc4sc(N5CCOCC5)nc4cn3)n2)cn1` [Example 13, 6′-amino-N-(2-morpholinothiazolo[4,5-c]pyridin-6-yl)-[2,3′-bipyridine]-6-carboxamide] the value was > 7.30.
